Source: US11136313B2, “Compounds, compositions, and methods for modulating CFTR” (Proteostasis Therapeutics, Inc., priority 2015, dated 2021)

Each compound was assayed against T1, ΔF508-CFTR (Homo sapiens, UniProt P13569, DEL508-508) (assay: hBE equivalent current (Ieq) assay: AUC of equivalent chloride current after forskolin/VX-770 in primary lung epithelial cells homozygous for ΔF508). Settings: relative to CFTR amplifier (Compound A)+VX-809 (3 uM), compound at 10 uM and Compound A at 3 uM, 24 h treatment.
T1 construct: Primary lung epithelial cells homozygous for the Cystic Fibrosis-causing ΔF508 mutation were differentiated for a minimum of 4 weeks; endogenous in cells; host or cells: primary lung epithelial cells (hBE) homozygous for ΔF508, differentiated at an air-liquid interface
T1 sequence (P13569 with tags, fused parts or gaps DEL508-508): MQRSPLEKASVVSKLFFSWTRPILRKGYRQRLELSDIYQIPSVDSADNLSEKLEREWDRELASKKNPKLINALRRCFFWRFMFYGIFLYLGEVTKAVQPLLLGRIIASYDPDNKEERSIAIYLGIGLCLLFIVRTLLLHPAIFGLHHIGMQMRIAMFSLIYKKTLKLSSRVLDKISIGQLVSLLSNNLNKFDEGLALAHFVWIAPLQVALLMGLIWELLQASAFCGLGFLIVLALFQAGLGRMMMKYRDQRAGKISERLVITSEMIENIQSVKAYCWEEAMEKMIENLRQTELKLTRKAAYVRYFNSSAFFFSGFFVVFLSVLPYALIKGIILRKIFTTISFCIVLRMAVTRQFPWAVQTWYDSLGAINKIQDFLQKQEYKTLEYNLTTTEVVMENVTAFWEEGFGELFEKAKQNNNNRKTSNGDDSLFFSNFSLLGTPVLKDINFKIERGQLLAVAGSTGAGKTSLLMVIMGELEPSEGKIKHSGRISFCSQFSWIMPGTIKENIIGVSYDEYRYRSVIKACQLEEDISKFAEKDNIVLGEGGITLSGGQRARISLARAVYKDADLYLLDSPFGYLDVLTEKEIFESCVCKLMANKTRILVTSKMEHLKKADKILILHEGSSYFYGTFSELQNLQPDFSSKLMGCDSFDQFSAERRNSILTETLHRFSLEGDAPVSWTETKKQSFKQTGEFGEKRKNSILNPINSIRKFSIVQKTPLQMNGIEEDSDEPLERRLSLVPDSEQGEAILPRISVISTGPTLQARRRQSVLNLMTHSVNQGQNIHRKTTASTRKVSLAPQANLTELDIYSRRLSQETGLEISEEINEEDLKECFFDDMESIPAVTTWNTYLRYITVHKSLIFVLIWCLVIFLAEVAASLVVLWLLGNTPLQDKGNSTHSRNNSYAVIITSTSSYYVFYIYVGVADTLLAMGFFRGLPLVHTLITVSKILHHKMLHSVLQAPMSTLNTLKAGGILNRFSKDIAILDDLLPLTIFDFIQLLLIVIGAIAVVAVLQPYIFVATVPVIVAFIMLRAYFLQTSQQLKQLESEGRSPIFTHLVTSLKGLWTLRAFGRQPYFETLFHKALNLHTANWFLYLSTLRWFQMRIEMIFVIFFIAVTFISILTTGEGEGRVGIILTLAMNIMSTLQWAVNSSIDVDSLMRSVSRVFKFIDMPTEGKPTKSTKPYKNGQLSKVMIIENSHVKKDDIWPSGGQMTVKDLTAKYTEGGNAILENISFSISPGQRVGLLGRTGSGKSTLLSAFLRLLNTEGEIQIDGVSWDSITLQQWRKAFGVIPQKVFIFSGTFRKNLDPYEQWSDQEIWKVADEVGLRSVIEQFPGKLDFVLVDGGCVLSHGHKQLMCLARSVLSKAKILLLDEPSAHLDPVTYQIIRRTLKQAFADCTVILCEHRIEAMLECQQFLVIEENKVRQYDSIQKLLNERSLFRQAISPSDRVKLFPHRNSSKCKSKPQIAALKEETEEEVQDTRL
Format: cell-based
Summary of the method: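 ΔF508/ΔF508 primary human bronchial epithelia, differentiated ≥4 weeks at air-liquid interface, treated basolaterally with compound for 24 h at 37 °C. Transepithelial voltage and conductance by 24-channel current clamp at 36 °C: benzamil, then forskolin plus VX-770 for 27 min, then bumetanide; AUC of equivalent chloride current over vehicle.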

Row | Structure (SMILES) | Activity
1 | Cc1ccc(OC(C)c2ccccc2)c2c(C(=O)[O-])cc(-c3cc4ccccn4c3)nc12.[Na+] (stereo not shown) [Compound 328] | ++ (activity>50% of CFTR amplifier+VX-809 (3 uM) with compound at 10 uM and Compound A at 3 uM)
2 | Cc1c(-c2cc(C(=O)[O-])c3c(O[C@@H](C)C4CCOCC4)ccc(C)c3n2)sc2ccccc12.[Na+] [Compound 329] | ++ (activity>50% of CFTR amplifier+VX-809 (3 uM) with compound at 10 uM and Compound A at 3 uM)
3 | Cc1c(-c2cc(C(=O)[O-])c3c(O[C@H](C)C4CCOCC4)ccc(C)c3n2)sc2ccccc12.[Na+] [Compound 330] | ++ (activity>50% of CFTR amplifier+VX-809 (3 uM) with compound at 10 uM and Compound A at 3 uM)
4 | Cc1c(-c2cc(C(=O)[O-])c3c(OC4CCOCC4)ccc(C)c3n2)sc2ccccc12.[Na+] [Compound 331] | ++ (activity>50% of CFTR amplifier+VX-809 (3 uM) with compound at 10 uM and Compound A at 3 uM)
5 | Cc1c(-c2cc(C(=O)[O-])c3c(OC4CCOCC4)ccc(C)c3n2)oc2ccccc12.[Na+] [Compound 332] | ++ (activity>50% of CFTR amplifier+VX-809 (3 uM) with compound at 10 uM and Compound A at 3 uM)
6 | Cc1c(-c2cc(C(=O)[O-])c3c(OC4CC(C)(C)OC(C)(C)C4)ccc(C)c3n2)sc2ccccc12.[Na+] [Compound 333] | ++ (activity>50% of CFTR amplifier+VX-809 (3 uM) with compound at 10 uM and Compound A at 3 uM)
7 | Cc1c(-c2cc(C(=O)[O-])c3c(OC4CC(C)(C)OC(C)(C)C4)ccc(C)c3n2)oc2ccccc12.[Na+] [Compound 334] | ++ (activity>50% of CFTR amplifier+VX-809 (3 uM) with compound at 10 uM and Compound A at 3 uM)
8 | Cc1c(-c2cc(C(=O)O)c3c(OC4CCCc5ccccc54)ccc(C)c3n2)oc2ccccc12 (stereo not shown) [Compound 335] | ++ (activity>50% of CFTR amplifier+VX-809 (3 uM) with compound at 10 uM and Compound A at 3 uM)
9 | Cc1c(-c2cc(C(=O)O)c3c(OC4CCc5ccccc54)ccc(C)c3n2)oc2ccccc12 (stereo not shown) [Compound 336] | ++ (activity>50% of CFTR amplifier+VX-809 (3 uM) with compound at 10 uM and Compound A at 3 uM)
10 | Cc1c(-c2cc(C(=O)[O-])c3c(OCC4CC(C)(C)OC(C)(C)C4)ccc(C)c3n2)sc2ccccc12.[Na+] [Compound 337] | ++ (activity>50% of CFTR amplifier+VX-809 (3 uM) with compound at 10 uM and Compound A at 3 uM)
11 | Cc1c(-c2cc(C(=O)[O-])c3c(OCC4CC(C)(C)OC(C)(C)C4)ccc(C)c3n2)oc2ccccc12.[Na+] [Compound 338] | ++ (activity>50% of CFTR amplifier+VX-809 (3 uM) with compound at 10 uM and Compound A at 3 uM)
12 | Cc1c(-c2cc(C(=O)[O-])c3c(OCC4COC4)ccc(C)c3n2)oc2ccccc12.[Na+] [Compound 343] | ++ (activity>50% of CFTR amplifier+VX-809 (3 uM) with compound at 10 uM and Compound A at 3 uM)
13 | Cc1c(-c2cc(C(=O)[O-])c3c(OCC4COC4)ccc(C)c3n2)sc2ccccc12.[Na+] [Compound 346] | ++ (activity>50% of CFTR amplifier+VX-809 (3 uM) with compound at 10 uM and Compound A at 3 uM)
14 | Cc1c(-c2cc(C(=O)O)c3c(OC(C)c4ccc5nccn5c4)ccc(C)c3n2)oc2ccccc12 (stereo not shown) [Compound 347] | + (activity<50% of an CFTR amplifier (Compound A)+VX-809 (3 uM) with compound at 10 uM and Compound A at 3 uM)
15 | Cc1c(-c2cc(C(=O)[O-])c3c(O[C@H]4C[C@H](C5CCOCC5)C4)ccc(C)c3n2)oc2ccccc12.[Na+] [Compound 350] | ++ (activity>50% of CFTR amplifier+VX-809 (3 uM) with compound at 10 uM and Compound A at 3 uM)
16 | Cc1c(-c2cc(C(=O)[O-])c3c(O[C@@H]4C[C@H]5CC[C@@H](C4)O5)ccc(C)c3n2)sc2ccccc12.[Na+] [Compound 352] | ++ (activity>50% of CFTR amplifier+VX-809 (3 uM) with compound at 10 uM and Compound A at 3 uM)
17 | Cc1c(-c2cc(C(=O)[O-])c3c(O[C@H]4C[C@H]5CC[C@@H](C4)O5)ccc(C)c3n2)sc2ccccc12.[Na+] [Compound 353] | ++ (activity>50% of CFTR amplifier+VX-809 (3 uM) with compound at 10 uM and Compound A at 3 uM)
18 | Cc1c(-c2cc(C(=O)[O-])c3c(O[C@@H]4C[C@H]5CC[C@@H](C4)O5)ccc(C)c3n2)oc2ccccc12.[Na+] [Compound 354] | ++ (activity>50% of CFTR amplifier+VX-809 (3 uM) with compound at 10 uM and Compound A at 3 uM)
19 | Cc1c(-c2cc(C(=O)[O-])c3c(O[C@H]4C[C@H]5CC[C@@H](C4)O5)ccc(C)c3n2)oc2ccccc12.[Na+] [Compound 355] | ++ (activity>50% of CFTR amplifier+VX-809 (3 uM) with compound at 10 uM and Compound A at 3 uM)
20 | Cc1c(-c2cc(C(=O)[O-])c3c(OC[C@@H]4C[C@H]5CC[C@@H](C4)O5)ccc(C)c3n2)oc2ccccc12.[Na+] [Compound 356] | ++ (activity>50% of CFTR amplifier+VX-809 (3 uM) with compound at 10 uM and Compound A at 3 uM)

Row | Structure (SMILES) | Activity
21 | Cc1c(-c2cc(C(=O)[O-])c3c(OC[C@H]4C[C@H]5CC[C@@H](C4)O5)ccc(C)c3n2)oc2ccccc12.[Na+] [Compound 357] | ++ (activity>50% of CFTR amplifier+VX-809 (3 uM) with compound at 10 uM and Compound A at 3 uM)
22 | Cc1c(-c2cc(C(=O)[O-])c3c(OC[C@@H]4C[C@H]5CC[C@@H](C4)O5)ccc(C)c3n2)sc2ccccc12.[Na+] [Compound 358] | ++ (activity>50% of CFTR amplifier+VX-809 (3 uM) with compound at 10 uM and Compound A at 3 uM)
23 | Cc1c(-c2cc(C(=O)[O-])c3c(OC[C@H]4C[C@H]5CC[C@@H](C4)O5)ccc(C)c3n2)sc2ccccc12.[Na+] [Compound 359] | ++ (activity>50% of CFTR amplifier+VX-809 (3 uM) with compound at 10 uM and Compound A at 3 uM)
24 | Cc1c(-c2cc(C(=O)O)c3c(OC(C)c4ccc(S(N)(=O)=O)cc4)ccc(C)c3n2)oc2ccccc12 (stereo not shown) [Compound 360] | ++ (activity>50% of CFTR amplifier+VX-809 (3 uM) with compound at 10 uM and Compound A at 3 uM)
25 | Cc1c(-c2cc(-c3noc(O)n3)c3c(OC(C)c4ccccc4)ccc(C)c3n2)oc2ccccc12 (stereo not shown) [Compound 361] | ++ (activity>50% of CFTR amplifier+VX-809 (3 uM) with compound at 10 uM and Compound A at 3 uM)
26 | Cc1c(-c2cc(-c3cc(O)[nH]n3)c3c(OC(C)c4ccccc4)ccc(C)c3n2)oc2ccccc12 (stereo not shown) [Compound 362] | + (activity<50% of an CFTR amplifier (Compound A)+VX-809 (3 uM) with compound at 10 uM and Compound A at 3 uM)
27 | Cc1c(-c2cc(C(=O)[O-])c3c(OCC4CCC5(CC4)COC5)ccc(C)c3n2)oc2ccccc12.[Na+] [Compound 367] | ++ (activity>50% of CFTR amplifier+VX-809 (3 uM) with compound at 10 uM and Compound A at 3 uM)
28 | Cc1c(-c2cc(C(=O)[O-])c3c(OC4CC(C)(C)C4)ccc(C)c3n2)oc2ccccc12.[Na+] [Compound 368] | ++ (activity>50% of CFTR amplifier+VX-809 (3 uM) with compound at 10 uM and Compound A at 3 uM)
29 | Cc1c(-c2cc(C(=O)[O-])c3c(OC4CC5(COC5)C4)ccc(C)c3n2)oc2ccccc12.[Na+] [Compound 369] | ++ (activity>50% of CFTR amplifier+VX-809 (3 uM) with compound at 10 uM and Compound A at 3 uM)
30 | Cc1c(-c2cc(C(=O)[O-])c3c(OC4CC5(COC5)C4)ccc(C)c3n2)sc2ccccc12.[Na+] [Compound 370] | ++ (activity>50% of CFTR amplifier+VX-809 (3 uM) with compound at 10 uM and Compound A at 3 uM)
31 | Cc1c(-c2cc(C(=O)[O-])c3c(OC(C)c4ccc(C5COC5)cc4)ccc(C)c3n2)oc2ccccc12.[Na+] (stereo not shown) [Compound 372] | ++ (activity>50% of CFTR amplifier+VX-809 (3 uM) with compound at 10 uM and Compound A at 3 uM)
32 | Cc1c(-c2cc(C(=O)[O-])c3c(OC(C)c4ccc(C5COC5)cc4)ccc(C)c3n2)sc2ccccc12.[Na+] (stereo not shown) [Compound 373] | ++ (activity>50% of CFTR amplifier+VX-809 (3 uM) with compound at 10 uM and Compound A at 3 uM)
33 | Cc1c(-c2cc(C(=O)[O-])c3c(OC[C@H]4C[C@@](C)(O)C4)ccc(C)c3n2)oc2ccccc12.[Na+] [Compound 374] | ++ (activity>50% of CFTR amplifier+VX-809 (3 uM) with compound at 10 uM and Compound A at 3 uM)
34 | Cc1c(-c2cc(C(=O)[O-])c3c(OC[C@H]4C[C@](C)(O)C4)ccc(C)c3n2)oc2ccccc12.[Na+] [Compound 375] | ++ (activity>50% of CFTR amplifier+VX-809 (3 uM) with compound at 10 uM and Compound A at 3 uM)
35 | Cc1c(-c2cc(C(=O)[O-])c3c(OC[C@H]4CC[C@@](C)(O)CC4)ccc(C)c3n2)oc2ccccc12.[Na+] [Compound 376] | ++ (activity>50% of CFTR amplifier+VX-809 (3 uM) with compound at 10 uM and Compound A at 3 uM)
36 | Cc1c(-c2cc(C(=O)[O-])c3c(OC[C@H]4CC[C@](C)(O)CC4)ccc(C)c3n2)oc2ccccc12.[Na+] [Compound 377] | ++ (activity>50% of CFTR amplifier+VX-809 (3 uM) with compound at 10 uM and Compound A at 3 uM)
37 | Cc1c(-c2cc(C(=O)[O-])c3c(OCC4CCC5(CC4)COC5)ccc(C)c3n2)sc2ccccc12.[Na+] [Compound 384] | ++ (activity>50% of CFTR amplifier+VX-809 (3 uM) with compound at 10 uM and Compound A at 3 uM)
38 | CO[C@]1(C)CC[C@H](COc2ccc(C)c3nc(-c4oc5ccccc5c4C)cc(C(=O)[O-])c23)CC1.[Na+] [Compound 387] | ++ (activity>50% of CFTR amplifier+VX-809 (3 uM) with compound at 10 uM and Compound A at 3 uM)
39 | CO[C@]1(C)CC[C@@H](COc2ccc(C)c3nc(-c4oc5ccccc5c4C)cc(C(=O)[O-])c23)CC1.[Na+] [Compound 388] | ++ (activity>50% of CFTR amplifier+VX-809 (3 uM) with compound at 10 uM and Compound A at 3 uM)
40 | Cc1ccc(OC(C)c2ccccc2)c2c(C(=O)[O-])cc(-c3nc4ccccc4n3C)nc12.[Na+] (stereo not shown) [Compound 407] | + (activity<50% of an CFTR amplifier (Compound A)+VX-809 (3 uM) with compound at 10 uM and Compound A at 3 uM)
